Results from patent US20260207450A1, “ANTI-DANDRUFF COMPOSITIONS” (Firmenich SA, priority 2022, published 2026).
Values after ≈ are worked out from the molar mass of the structure shown.

How the values were obtained:
[1] = system: M. globosa ATCC MYA-4612; assay: Disc-diffusion assay, perfumery materials in DMSO, M. globosa; assay type: cell-based, Malassezia globosa; settings: Malassezia globosa, 144 h
Description: (§1) Anti-Malassezia effect of perfumery materials in solvent in DMSO was determined using disc-diffusion assay, based on the method of J Mycol Infect 2018: 23: 91-98. In brief, working cultures of Malassezia strains were prepared from −80 C stock culture on mDixon agar plate (for M. furfur DSM 6170) or mLN agar plate (for M. restricta ATCC MYA-4611 and M. globosa ATCC MYA-4612), and cells were suspended in 0.9% saline, and spread onto mDixon or mLN agar surface to prepare lawn plate. Test samples solutions are prepared in DMSO to final concentrations of 0.2%, 1% or 2%. Discs (Whatman, 6 mm in diameter) were placed on inoculated agar plates with each Malassezia strains respectively, including M. furfur DSM 6170, M. restricta ATCC MYA-4611, and M. globosa ATCC MYA-4612. Aliquots (20 μL) of each sample solution was added to each disc. Agar plates were incubated at 30° C. for 3 days for M. furfur DSM 6170, and 6 days for M. restricta ATCC MYA-4611, and M. globosa ATCC MYA-4612. After incubation, diameters of the clear inhibition zones around the discs were measured. Inhibition zone greater than 6 mm are regarded as having anti-Malassezia effect.

[2] = system: Malassezia furfur DSM 6170; assay: MIC assay on Malassezia furfur DSM 6170 (resazurin); assay type: cell-based; settings: Malassezia furfur, DSM6170; 30° C., 48 h aerobically; dilutions 29 to 10000 ppm
Description: The MIC assay for Malassezia furfur DSM 6170 was modified based on the method in Journal of Clinical Microbiology 2017, Vol 55: 1883-1893. In brief, working culture was prepared from stock cultures stored at −80° C. to obtain a cell suspension as the inoculum. Serial dilutions of samples, 29 to 10000 ppm, were tested to determine the MIC values for growth of Malassezia furfur DSM 6170 after at 30° C. for 48 h aerobically. Resazurin was used as growth indicator.
(§2) A total of 26 perfumery materials were examined for an inhibition effect on Malassezia furfur and Staphylococcus aureus.

[3] = system: M. restricta ATCC MYA-4611; assay: Disc-diffusion assay, perfumery materials in DMSO, M. restricta; assay type: cell-based, Malassezia restricta; settings: Malassezia restricta, 144 h
Description: as §1

[4] = system: Staphylococcus aureus ATCC 6538; assay: MIC assay on Staphylococcus aureus ATCC 6538; assay type: cell-based; settings: Staphylococcus aureus, ATCC6538; TSB, 37° C., 24 h aerobically; dilutions 29 to 10000 ppm; read-out: MIC (ppm) S. aureus
Description: MIC assay for Staphylococcus aureus ATCC 6538 is based on Clinical Laboratory Standard Institute: CLSI/NCCLS M07-A8. Cell suspension of working cultures of S. aureus was prepared following the instructions of culture provider ATCC, USA.
as §2

[5] = system: M. furfur DSM 6170; assay: Disc-diffusion assay, perfumery materials in DMSO, M. furfur; assay type: cell-based, Malassezia furfur; settings: Malassezia furfur, DSM6170, 72 h
Description: as §1

[6] = system: M. restricta; assay: Disc-diffusion assay, combinations with piroctone olamine (PO) in DMSO, M. restricta; assay type: cell-based, Malassezia restricta; settings: 4 days, ratio greater than 1.0 = boosting effect
Description: Anti-Malassezia effect of combinations of PO and perfumery materials in solvent DMSO against M. restricta was determined using disc-diffusion assay as described above. Aliquots (20 μL) of each sample solution was added to each disc. Agar plates were incubated at 30° C. for 4 days. After incubation, diameters of the clear inhibition zones around the discs were measured. Ratio of inhibition zone diameter of each combination to that of PO only were calculated. […] Anti-Malassezia effect of combinations of PO and perfumery raw materials mixtures in solvent DMSO was determined using disc-diffusion assay, as described above. Aliquots (20 μL) of each sample solution was added to each disc. Agar plates were incubated at 30° C. for 4 days. After incubation, diameters of the clear inhibition zones around the discs were measured. Ratio of inhibition zone diameter of each combination to that of PO only were calculated.

[7] = system: M. restricta; assay: Disc-diffusion assay, additional perfumery materials in DMSO, M. restricta, 4 days; assay type: cell-based, Malassezia restricta; settings: Malassezia restricta, 96 h; Table 20; 0.5% in DMSO, 4 days; read-out: Inhibition zone diameter (mm) on M. restricta
Description: Anti-Malassezia effect of additional perfumery materials in DMSO was determined using disc-diffusion assay as described previously. Test samples solutions were prepared in DMSO to final concentrations of 0.5%, 1% or 2%. Discs (Whatman, 6 mm in diameter) were placed on inoculated agar plates. Aliquots (20 μL) of each sample solution was added to each disc. Agar plates were incubated at 30° C. for 4 days. After incubation, diameters of the clear inhibition zones around the discs were recorded
Anti-Malassezia effect of additional perfumery materials in DMSO was determined using disc-diffusion assay as described above. Test samples solutions were prepared in DMSO to final concentrations of 0.5%, 1% or 2%. Discs (Whatman, 6 mm in diameter) were placed on inoculated agar plates. Aliquots (20 μL) of each sample solution was added to each disc. Agar plates were incubated at 30° C. for 4 days. After incubation, diameters of the clear inhibition zones around the discs were recorded.
Anti-Malassezia effect of additional perfumery materials in solvent in DMSO was determined using disc-diffusion assay, as described previously. Test samples solutions are prepared in DMSO to final concentrations of 0.5%. Discs (Whatman, 6 mm in diameter) were placed on inoculated agar plates. Aliquots (20 μL) of each sample solution was added to each disc. Agar plates were incubated at 30° C. for 4 days. After incubation, diameters of the clear inhibition zones around the discs were measured.

SMILES	MIC [2]	MIC [4]	zone of inhibition at 0.2 % [1]	zone of inhibition at 0.2 % [3]	zone of inhibition at 1 % [1]	zone of inhibition at 1 % [3]	also measured
CC(C)(C)c1ccc(CCC=O)cc1 [cyclamen propanal, 3-(4-tert-butylphenyl)propanal]			6.3 mm	6.6 mm			zone of inhibition at 2 % [1]: 7.9 mm; zone of inhibition at 2 % [3]: 12.3 mm
CCCCCCC#CC(=O)OC [methyl octine carbonate, methyl 2-nonynoate]				6.4 mm	10.3 mm	6.7 mm	
CCCCCCCCCC(=O)O [decanoic acid]							Ratio of inhibition zone diameter (1% PRM + 0.35% PO) to 0.35% PO [6]: 1.1
CCOC(=O)C(C)CC (racemic) [ethyl 2-methyl butanoate, (+/−)-ethyl 2-methylbutanoate]					6.6 mm		
CCCCC[C@H]1C(=O)CC[C@@H]1CC(=O)OC (racemic) [methyl dihydrojasmonate, methyl 2-((1 RS,2RS)-3-oxo-2-pentylcyclopentyl)acetate]	222 µg/mL (≈ 981 µM)	330 µg/mL (≈ 1460 µM)		6.1 mm			
c1ccc2[nH]ccc2c1 [indole]	259 µg/mL (≈ 2210 µM)	693 µg/mL (≈ 5920 µM)	6.3 mm		15.2 mm		
C=CCCCCCCCCC=O [Mix 10-undecenal, 10-undecenal]			7.1 mm	6.5 mm	14.1 mm	12.7 mm	
COc1ccc(C=O)cc1 [para-anisaldehyde, 4-methoxybenzaldehyde]	500 µg/mL (≈ 3670 µM)						zone of inhibition at 2 % [3]: 13.4 mm
CCCCCCCC(=O)O [octanoic acid]							Ratio of inhibition zone diameter (1% PRM + 0.35% PO) to 0.35% PO [6]: 1.1
CCCCCCCCC(=O)O [nonanoic acid]							Ratio of inhibition zone diameter (0.5% PRM + 0.1% PO) to 0.1% PO [6]: 1.1; Ratio of inhibition zone diameter (1% PRM + 0.35% PO) to 0.35% PO [6]: 1.2
CCCCCCO [Mix 1-hexanol, 1-hexanol]						6.7 mm	
CCOc1cc(C=O)ccc1O [ethyl vanillin, 3-ethoxy-4-hydroxybenzaldehyde]	500 µg/mL (≈ 3010 µM)	2670 µg/mL (≈ 16000 µM)					zone of inhibition at 2 % [3]: 19.5 mm

Now from value to compound, other results behind:

MIC [2]	MIC [4]	SMILES	zone of inhibition at 0.2 % [1]	zone of inhibition at 0.2 % [3]	zone of inhibition at 1 % [1]	zone of inhibition at 1 % [3]	also measured
333 µg/mL (≈ 1810 µM)	293 µg/mL (≈ 1590 µM)	CCCCCCC1CCCC(=O)O1 (centres unmarked) [delta-undecalactone, 6-hexyltetrahydro-2H-pyran-2-one]	6.4 mm	6.1 mm			
222 µg/mL (≈ 1420 µM)	625 µg/mL (≈ 4000 µM)	CC(C)C1CCC(CO)CC1 (centres unmarked) [p-menthan-7-ol]	6.5 mm	6.7 mm			zone of inhibition at 2 % [5]: 6.3 mm
148 µg/mL (≈ 746 µM)	173 µg/mL (≈ 872 µM)	CCCCCCCCC1CCC(=O)O1 (racemic) [gamma-dodecalactone, (+/−)-5-octyldihydro-2(3h)-furanone]	6.3 mm				zone of inhibition at 2 % [5]: 6.9 mm
1300 µg/mL (≈ 6830 µM)	387 µg/mL (≈ 2030 µM)	CC(C)c1cccc(C(C)CC=O)c1 (racemic) [floral butanal, (+/−)-3-(3-isopropylphenyl)butanal]				8.2 mm	zone of inhibition at 0.5 % [7]: 7.5 mm
	933 µg/mL (≈ 4900 µM)	CC(C=O)Cc1ccc(C(C)C)cc1 (racemic) [cyclamen aldehyde, (+/−)-3-(4-isopropylphenyl)-2-methylpropanal]			6.7 mm	8.2 mm	zone of inhibition at 0.5 % [7]: 7.5 mm
	22 µg/mL (≈ 118 µM)	CCCCCCCCCCCCO [Mix 1-dodecanol, 1-dodecanol]	8.7 mm	6.8 mm	10.2 mm	11.5 mm	
290 µg/mL (≈ 1480 µM)	111 µg/mL (≈ 566 µM)	COC(=O)c1c(C)cc(O)c(C)c1O [methyl 2,4-dihydroxy-3,6-dimethylbenzoate]	7.4 mm	6.3 mm			zone of inhibition at 2 % [1]: 9.2 mm; zone of inhibition at 2 % [3]: 12 mm; zone of inhibition at 2 % [5]: 7 mm
222 µg/mL (≈ 1360 µM)	693 µg/mL (≈ 4240 µM)	CCCCCc1cc(C)ccn1 [4-methyl-2-pentylpyridine]	6.7 mm	6.6 mm			zone of inhibition at 2 % [5]: 6.7 mm
44 µg/mL (≈ 338 µM)	867 µg/mL (≈ 6660 µM)	CCCCC(CC)CO (centres unmarked) [2-ethyl-1-hexanol]			6.7 mm	6.4 mm	zone of inhibition at 2 % [5]: 7.6 mm
222 µg/mL (≈ 1250 µM)	530 µg/mL (≈ 2970 µM)	COc1ccc(CC(C)C=O)cc1 (racemic) [para-anisyl propanal, (+/−)-3-(4-methoxyphenyl)-2-methylpropanal]		6.6 mm	11.6 mm	14.3 mm	Ratio of inhibition zone diameter (0.5% PRM + 0.1% PO) to 0.1% PO [6]: 2.0; Ratio of inhibition zone diameter (1% PRM + 0.35% PO) to 0.35% PO [6]: 1.5
500 µg/mL (≈ 3160 µM)	370 µg/mL (≈ 2340 µM)	CCCCCCCCCCO [Mix 1-decanol, 1-decanol]	6.7 mm	8.5 mm	15.9 mm	10 mm	zone of inhibition at 2 % [1]: 16.4 mm; zone of inhibition at 2 % [3]: 25 mm
	325 µg/mL (≈ 1590 µM)	CC(C=O)Cc1ccc(C(C)(C)C)cc1 (racemic) [lilial, (+/−)-2-methyl-3-[4-(2-methyl-2-propanyl)phenyl]propanal]			7.4 mm		
